According to ChEMBL document CHEMBL1201862, “PubChem BioAssay data set” (2004):
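96-well plates; 48 h exposure; 5 concentrations. Endpoints by linear interpolation between flanking doses. Not reached: highest tested concentration assigned. At the GI50, growth is halved.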 Activity calls are given as the source filed them. Cut-off read from the data, not from the text of the source: active = GI50 up to about 1.1 µM and inactive = higher.

Assays:
Test in all cases: growth of human tumour cells (NCI), 48 h
A498 = test system: A498
ACHN = test system: ACHN
CCRF-CEM = test system: CCRF-CEM
DU-145 = test system: DU-145
EKVX = test system: EKVX
HOP-92 = test system: HOP-92
HT-29 = test system: HT-29
Hs-578T = test system: Hs-578T
Malme-3M = test system: Malme-3M
NCI-H460 = test system: NCI-H460
OVCAR-3 = test system: OVCAR-3
OVCAR-4 = test system: OVCAR-4
OVCAR-5 = test system: OVCAR-5
RXF 393 = test system: RXF 393
SF-268 = test system: SF-268
SN12C = test system: SN12C
SNB-19 = test system: SNB-19
SNB-75 = test system: SNB-75
U-251 = test system: U-251
UACC-62 = test system: UACC-62

Compound | GI50 (A498) | GI50 (ACHN) | GI50 (CCRF-CEM) | GI50 (DU-145) | GI50 (EKVX) | GI50 (HOP-92) | GI50 (HT-29) | GI50 (Hs-578T) | GI50 (Malme-3M) | GI50 (NCI-H460) | GI50 (OVCAR-3) | GI50 (OVCAR-4) | GI50 (OVCAR-5) | GI50 (RXF 393) | GI50 (SF-268) | GI50 (SN12C) | GI50 (SNB-19) | GI50 (SNB-75) | GI50 (U-251) | GI50 (UACC-62)
COc1cc2nc(-c3cccs3)[nH]c(=O)c2cc1OC | > 100 µM (inactive) | > 100 µM (inactive) | 36.6 µM (inactive) | > 100 µM (inactive) | > 100 µM (inactive) | > 100 µM (inactive) | > 100 µM (inactive) | > 100 µM (inactive) | > 100 µM (inactive) | > 100 µM (inactive) | > 100 µM (inactive) | > 100 µM (inactive) | 28.6 µM (inactive) | > 100 µM (inactive) | > 100 µM (inactive) | > 100 µM (inactive) | > 100 µM (inactive) | > 100 µM (inactive) | 61.7 µM (inactive) | > 100 µM (inactive)
CC[C@@]1(O)C[C@H](OC2CC(N(C)C)C(O)C(C)O2)c2c(O)c3c(c(O)c2[C@H]1OC1CC(N(C)C)C(O)C(C)O1)C(=O)c1cccc(O)c1C3=O (some centres undefined) | 0.012 µM (active) |  | 0.0687 µM (active) | 0.182 µM (active) | 0.0984 µM (active) | 0.071 µM (active) | 0.0224 µM (active) | 0.0577 µM (active) | 0.0424 µM (active) | 0.018 µM (active) | 0.051 µM (active) | 0.0409 µM (active) | 0.0838 µM (active) | 0.0255 µM (active) | 0.0603 µM (active) | 0.054 µM (active) | 0.04 µM (active) | 0.0195 µM (active) | 0.0264 µM (active) | 0.0253 µM (active)
Cc1cn(C2CC(O)C(COC(=O)NCCC(F)(F)C(F)(F)C(F)(F)C(F)(F)F)O2)c(=O)[nH]c1=O (centres undefined) | > 100 µM (inactive) | > 100 µM (inactive) | > 100 µM (inactive) | > 100 µM (inactive) | > 100 µM (inactive) | 54.6 µM (inactive) | > 100 µM (inactive) | 80.5 µM (inactive) | > 100 µM (inactive) | > 100 µM (inactive) | > 100 µM (inactive) | > 100 µM (inactive) | > 100 µM (inactive) | 78.5 µM (inactive) | > 100 µM (inactive) | > 100 µM (inactive) | > 100 µM (inactive) | 54.7 µM (inactive) | > 100 µM (inactive) | > 100 µM (inactive)
NS(=O)(=O)c1ccc(NC2(C(=O)O)CCCC2)cc1 | > 100 µM (inactive) | > 100 µM (inactive) | > 100 µM (inactive) | > 100 µM (inactive) | > 100 µM (inactive) | > 100 µM (inactive) | > 100 µM (inactive) | > 100 µM (inactive) | > 100 µM (inactive) | > 100 µM (inactive) | > 100 µM (inactive) | > 100 µM (inactive) | > 100 µM (inactive) | > 100 µM (inactive) | > 100 µM (inactive) | > 100 µM (inactive) | > 100 µM (inactive) | > 100 µM (inactive) | > 100 µM (inactive) | > 100 µM (inactive)
Cc1nccn1S(=O)(=O)c1ccc(Cl)cc1 | 36.1 µM (inactive) | 95.9 µM (inactive) | 41 µM (inactive) | 81.8 µM (inactive) | 31.3 µM (inactive) | 16.9 µM (inactive) | 35 µM (inactive) | 44.9 µM (inactive) | 34.8 µM (inactive) | 41.9 µM (inactive) | 54.8 µM (inactive) | 29.5 µM (inactive) | 64.6 µM (inactive) | 52 µM (inactive) | 47.9 µM (inactive) | 37.8 µM (inactive) | > 100 µM (inactive) | 57 µM (inactive) | 61.1 µM (inactive) | 55.6 µM (inactive)
CCCCSCc1nc2nc(Cl)c(Cl)nc2[nH]1 | 21.8 µM (inactive) | 23.9 µM (inactive) | 11.3 µM (inactive) | 32.5 µM (inactive) | 33.3 µM (inactive) | 24.5 µM (inactive) | 30.8 µM (inactive) | 35.6 µM (inactive) | 20.3 µM (inactive) | 20.6 µM (inactive) | 12.4 µM (inactive) | 29.5 µM (inactive) | 30.9 µM (inactive) | 19.4 µM (inactive) | 35.6 µM (inactive) | 22.1 µM (inactive) | 35.3 µM (inactive) | 19 µM (inactive) | 20.9 µM (inactive) | 10.5 µM (inactive)
N#Cc1cnn2ccn(C3OC(COC(=O)c4ccccc4)C(OC(=O)c4ccccc4)C3OC(=O)c3ccccc3)c12 (centres undefined) | 20.5 µM (inactive) | > 21.5 µM (inactive) | > 21.5 µM (inactive) | > 21.5 µM (inactive) | > 21.5 µM (inactive) | > 31.6 µM (inactive) | > 21.5 µM (inactive) | 13.2 µM (inactive) | > 21.5 µM (inactive) | > 21.5 µM (inactive) | > 21.5 µM (inactive) | > 21.5 µM (inactive) | > 21.5 µM (inactive) | > 21.5 µM (inactive) | > 21.5 µM (inactive) | > 21.5 µM (inactive) | > 21.5 µM (inactive) | 1 µM (active) | > 21.5 µM (inactive) | > 21.5 µM (inactive)
